According to patent US20190142840A1, “USE OF SIGMA RECEPTOR LIGANDS IN CANCER” (priority 2016, published 2019):
Like-named read-outs stand apart in the source and are kept apart here.

Assays:
[1] = system: human breast adenocarcinoma MCF7 European cell line; experiment: Proliferation assay (MTT or SRB), MCF7 European cell line; type: cell-based; conditions: for cytotoxic effect of association with paclitaxel: 10 μM sigma-1 receptor antagonist + 10 nM paclitaxel; for IC50: Homo sapiens, read-out: IC50 (concentration of drug that inhibited 50% of cell proliferation)
Description: (§1) The human breast adenocarcinoma MCF7 European cell line, the human lung carcinoma A549 cell line and the B16-F10 murine melanoma cell line were obtained from the University of Granada Scientific Instrumentation Centre (Spain) and the American Type Culture Collection (ATCC). The cells were cultured in Dulbecco's modified Eagle's medium (DMEM) (Sigma, St. Louis, Mo., USA), supplemented with 10% heat-inactivated fetal bovine serum (FBS) (Lonza, Walkersville, Md., USA) and 1% of antibiotics mixture of penicillin (10,000 U/mL) and streptomycin (10 mg/mL) in an humidified 5% CO2 incubator at 37° C. of temperature. […] The percentage of viability was calculated by utilizing cells without any treatment as control. […] In the MTT protocol, 20 μL of MTT solution in cell culture medium (5 mg/mL) was added to each well. […] The optical density (OD) of converted dye, which is proportional to the number of viable cells, was measured at 570 nm using a Titertek multiscan colorimeter (Flow Laboratories, Irvine, USA). The percentage of surviving cells was calculated as the OD ratio of treated cells to control (untreated) cells (×100). In the SRB protocol, the cells were washed three times with PBS, and 300 μL of 10% trichloroacetic acid was used to fix the cells (20 minutes at 4° C.). Then, the cells were washed three times with distilled water and left to dry before 300 μL of SRB was added. Incubation under mechanical stirring was continued for 20 minutes, and the excess SRB was removed by the addition of a 1% acetic acid solution. Then, the cells were left to dry. […] Sigma-Aldrich) was used for dye resuspension. The optical density (OD) of SRB was measured at 492 nm (Titertek® Multiskan colorimeter; Flow Laboratories Ltd, Oldham, UK) and analyzed with Ascent software version 2.6 (ThermoLab systems, Helsinki, Finland). In all cases, the percentage of surviving cells was calculated as: [OD treated cells/OD control (untreated) cells)]×100. The IC50 values (concentration of drug that inhibited 50% of cell proliferation) were estimated from the inhibition curves.

[2] = system: human lung carcinoma A549 cell line; experiment: Proliferation assay (MTT or SRB), A549 cell line; type: cell-based; conditions: read-out: IC50 (concentration of drug that inhibited 50% of cell proliferation)
Description: The cells were cultured in Dulbecco's modified Eagle's medium (DMEM) (Sigma, St. Louis, Mo., USA), supplemented with 10% heat-inactivated fetal bovine serum (FBS) (Lonza, Walkersville, Md., USA) and 1% of antibiotics mixture of penicillin (10,000 U/mL) and streptomycin (10 mg/mL) in an humidified 5% CO2 incubator at 37° C. of temperature. Cultured cells were detached with a trypsin-ethylenediamine tetraacetic acid (EDTA) solution (0.25%) and seeded into 24-well plates at a density of 6-15×10^3 cells per well, depending on the cell line.
After incubation for 24 hours under culture conditions, the cells were treated with either paclitaxel (0.1-50 nM) or Example 1 (5-100 μM). […] The percentage of viability was calculated by utilizing cells without any treatment as control.
After an incubation time of 96 hours with drugs, the cytotoxicity of the treatments toward the cell lines was evaluated in triplícate by the 3-(4,5-dimethylthiazol-2-yl)-2,5-diphenyl tetrazolium bromide (MTT) proliferation assay, as previously described (Clares et al., 2013), or with a sulforhodamine B (SRB) protocol, as previously described (Melguizo et al., 2015). […] The optical density (OD) of converted dye, which is proportional to the number of viable cells, was measured at 570 nm using a Titertek multiscan colorimeter (Flow Laboratories, Irvine, USA). […]

[3] = system: B16-F10 murine melanoma cell line; experiment: Proliferation assay (MTT or SRB), B16-F10 cell line; type: cell-based; conditions: for cytotoxic effect of association with paclitaxel: 10 μM sigma-1 receptor antagonist + 10 nM paclitaxel; for IC50: Mus musculus, read-out: IC50 (concentration of drug that inhibited 50% of cell proliferation)
Description: as §1

[4] = system: patients treated for colorectal cancer; experiment: Phase 2 placebo-controlled clinical trial of Example 1 with oxaliplatin (FOLFOX4/mFOLFOX6); type: in vivo, human
Description: Thus, the clinical study titled “A proof-concept phase 2, randomized, placebo-controlled, double blind, multicenter clinical trial in two parallel groups to evaluate the efficacy of Example 1 for reducing the incidence and severity of oxaliplatin-induced peripheral neuropathy in patients treated for colorectal cancer” was performed.
The study period was 24 weeks of chemotherapy (one chemo cycle every 2 weeks=12 chemo cycles) plus 6 weeks (follow-up) and having as relevant safety objective to explore the incidence of adverse events by severity, of serious adverse effects, of adverse events leading to Example 1 discontinuation and of adverse events related to Example 1.
Patients received either: • oral daily Example 1, 400 mg/day, during the first 5 days of every chemotherapy cycle, starting the day before the cycle, up to a maximum of 12 cycles (Arm 1), • or oral daily placebo during the first 5 days of every chemotherapy cycle, starting the day before the cycle, up to a maximum of 12 cycles (Arm 2).
Patients were randomized to one of the two above mentioned Arms.
It was expected that chemotherapy cycles were repeated every 14 days for a maximum of 6 months (12 cycles) in the absence of disease progression or unacceptable toxicity.

sigma (σ-2) site = sigma (σ-2) site (Homo sapiens, UniProt Q5BJF2); conditions: background statement; cited from earlier work
sigma 1 (σ-1) site = sigma 1 (σ-1) site (Homo sapiens, UniProt Q99720); conditions: background statement; cited from earlier work
[5] = Example 1 400 mg/day oral with oxaliplatin, % apparently of the 27 discontinuations
[6] = Example 1 400 mg/day oral with oxaliplatin, % of n = 62 randomized
[7] = Example 1 400 mg/day oral with oxaliplatin, number of subjects
[8] = patients treated with Example 1 versus placebo

Chain of sigma (σ-2) site (Q5BJF2 whole entry): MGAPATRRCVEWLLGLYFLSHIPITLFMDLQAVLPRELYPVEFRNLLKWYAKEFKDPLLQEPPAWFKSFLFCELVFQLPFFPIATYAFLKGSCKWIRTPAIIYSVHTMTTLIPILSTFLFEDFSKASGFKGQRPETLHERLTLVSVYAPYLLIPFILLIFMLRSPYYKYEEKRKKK
Chain of sigma 1 (σ-1) site (Q99720 whole entry): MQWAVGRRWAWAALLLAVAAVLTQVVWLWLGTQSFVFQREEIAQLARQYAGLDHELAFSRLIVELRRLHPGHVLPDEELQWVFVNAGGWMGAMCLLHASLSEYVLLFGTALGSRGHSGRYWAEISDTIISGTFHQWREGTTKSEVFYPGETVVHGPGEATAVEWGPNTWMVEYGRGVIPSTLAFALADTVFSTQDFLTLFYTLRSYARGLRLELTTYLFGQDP

Cc1cc(OCCN2CCOCC2)nn1-c1ccc2ccccc2c1 [Example 1, 4-{2-[5-Methyl-1-(naphthalen-2-yl)-1H-pyrazol-3-yloxy]ethyl}morpholine]
cytotoxic effect of association with paclitaxel ([1]; MCF7 European cell culture): better results than Haloperidol and BD-1063
cytotoxic effect of association with paclitaxel ([1]; MCF7 European cell culture, listed as Example-1): greater than summative
IC50 ([1]; MCF7, 96 h): 83 µM
IC50 ([2]; A549, 96 h): 100 µM
cytotoxic effect of association with paclitaxel ([3]; B16-F10 cell culture): better results than Haloperidol and BD-1063
cytotoxic effect of association with paclitaxel ([3]; B16-F10 cell culture, listed as Example-1): greater than summative
IC50 ([3]; B16-F10, 96 h): 27 µM
Discontinuations: Physician decision (%) [4, 5]: 11.1%
Discontinuations: Progressive Disease (%) [4, 5]: 7.4%
Number of Completers (%) [4, 6]: 56.5%
Number of discontinuations (%) [4, 6]: 43.5%
Number of discontinuations ([4]; Example 1 400 mg/day oral with oxaliplatin, n = 62, number of subjects): 27
Discontinuations: Physician decision [4, 7]: 3
Discontinuations: Progressive Disease [4, 7]: 2
Number of Completers ([4]; Example 1 400 mg/day oral, first 5 days of each cycle, with oxaliplatin, n = 62 randomized, number of subjects): 35
more patients completed the 12 cycles of Oxaliplatin therapy ([4]; Example 1 added to chemotherapy versus placebo): 14.6%
Oxaliplatin dosing attained [4, 8]: higher Oxaliplatin dosing
patients discontinued because of cancer progression or physician decision [4, 8]: Less patients
tolerability of the chemotherapy [4, 8]: tolerated better the chemotherapy

CC(=O)O[C@H]1C(=O)[C@@]2(C)[C@H]([C@H](OC(=O)c3ccccc3)[C@]3(O)C[C@H](OC(=O)[C@H](O)[C@@H](NC(=O)c4ccccc4)c4ccccc4)C(C)=C1C3(C)C)[C@]1(OC(C)=O)CO[C@@H]1C[C@@H]2O [Paclitaxel, reference compound]
IC50 ([1]; MCF7 European cells, 96 hours incubation): 0.0085 µM
cytotoxicity ([1]; paclitaxel alone at 10 nM, MCF7 European cell culture): around 35%
IC50 ([2]; A549, A-549 cells, 96 hours incubation): 0.003 µM
IC50 ([3]; B16-F10 cells, 96 hours incubation): 0.015 µM
cytotoxicity ([3]; paclitaxel alone at 10 nM, B16-F10 cell culture): around 35%

O=C(CCCN1CCC(O)(c2ccc(Cl)cc2)CC1)c1ccc(F)cc1 [haloperidol, reference compound]
cytotoxic effect of association with paclitaxel ([1]; MCF7 European cell culture): greater than summative
cytotoxic effect of association with paclitaxel ([3]; B16-F10 cell culture): greater than summative

SKF 10047
affinity for the sigma (σ-2) site (sigma (σ-2) site): micromolar affinity
affinity for the sigma 1 (σ-1) site (sigma 1 (σ-1) site): nanomolar affinity
